Laboratory results: ChEMBL document CHEMBL1201862, “PubChem BioAssay data set” (2004)
Calls of active or inactive are those of the source.

Key:
[1] = biological target: T1, High affinity choline transporter 1 (Homo sapiens, UniProt Q9GZV3); experiment: CHT choline uptake inhibitors, dose response, cell-based, HEK-293 hCHT, [3H]-choline uptake (AID 652177); type: functional
T1 sequence (Q9GZV3 whole entry): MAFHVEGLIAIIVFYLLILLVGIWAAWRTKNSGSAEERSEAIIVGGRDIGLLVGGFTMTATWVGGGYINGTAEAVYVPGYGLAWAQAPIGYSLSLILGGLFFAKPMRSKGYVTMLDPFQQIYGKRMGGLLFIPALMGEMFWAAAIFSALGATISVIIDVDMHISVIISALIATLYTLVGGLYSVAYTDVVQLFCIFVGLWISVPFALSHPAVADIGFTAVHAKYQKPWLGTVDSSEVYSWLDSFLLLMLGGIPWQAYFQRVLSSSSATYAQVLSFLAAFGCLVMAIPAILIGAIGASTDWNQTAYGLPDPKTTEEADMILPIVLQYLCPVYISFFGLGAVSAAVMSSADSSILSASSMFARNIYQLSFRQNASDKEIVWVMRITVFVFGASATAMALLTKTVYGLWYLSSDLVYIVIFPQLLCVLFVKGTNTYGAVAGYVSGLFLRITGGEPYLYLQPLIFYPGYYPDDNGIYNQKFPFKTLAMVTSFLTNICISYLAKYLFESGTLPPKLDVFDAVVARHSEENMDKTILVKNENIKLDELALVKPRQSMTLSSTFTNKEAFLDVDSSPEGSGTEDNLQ

[2] = biological target: Potassium channel subfamily K member 9 (Homo sapiens, UniProt Q9NPC2); experiment: TASK3 (KCNK9) channel inhibitors, thallium flux, SAR follow-up, selectivity assay for TASK1 inhibitor project, cell-based, FluxOR thallium flux, concentration-response (AID 652211); type: functional;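 also: potency is for inhibitors of the channel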
[3] = biological target: Potassium channel subfamily K member 3 (Rattus norvegicus, UniProt O54912); experiment: SAR analysis for the identification of selective inhibitors of the two-pore domain potassium channel TASK1(KCNK3):Automated Electrophysiology.; type: functional
[4] = system: Streptococcus sp. 'group A'; experiment: growth inhibition of control SK(-) GAS strain, dose response, counter-screen for streptokinase expression inhibitor project, luminescence, kanamycin, BacTiterGlo, confirmation (AID 1900); type: functional, organism-based
[5] = biological target: Induced myeloid leukemia cell differentiation protein Mcl-1 (Homo sapiens, UniProt Q07820); type: functional
[6] = system: Streptococcus; experiment: Group A Streptococcus viability loss, dose response, counter-screen for streptokinase expression inhibitor project, luminescence, BacTiterGlo (AID 1915); type: functional, organism-based;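 also: potency for reduction of bacterial viability or growth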
[7] = human group III sPLA2 inhibitors, dose response, biochemical, QFRET, IC50 (AID 743457);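 also: green fluorescence rise as the enzyme cleaves BODIPY PC-A2 in liposomes; potency for inhibition of the enzyme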
[8] = biological target: Paired box protein Pax-8 (Homo sapiens, UniProt Q06710); experiment: inhibitors of PAX8-driven TPO luciferase reporter, dose response, RMG-I cells, cherry-pick (AID 687027); type: functional, cell-based;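 also: luciferase reporter driven by Pax8 target thyroperoxidase promoter measured by SteadyGlo luminescence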
[9] = NIH:OVCAR-3 ovarian cancer cell cytotoxicity, dose response, PAX8 inhibitor project, plate reader, dry powder samples (AID 743044); type: functional, cell-based
[10] = IGROV1 ovarian cancer cell cytotoxicity, dose response, PAX8 inhibitor project, plate reader, dry powder samples (AID 743043); type: functional, cell-based; settings: IGROV-1
[11] = cytotoxicity in OVCAR8 ovarian cancer cells, dose response, PAX8 project, cell-based, plate reader, dry powder samples (AID 743197); type: functional; settings: OVCAR-8
[12] = Counterscreen for […] of the human trace amine associated receptor 1 (TAAR1): Fluorescence-based cell-based high throughput dose response assay to identify nonselective Ga16 agonists.; type: functional
[13] = biological target: T2, Trace amine-associated receptor 1 (Homo sapiens, UniProt Q96RJ0); experiment: Fluorescence-based cell-based high throughput dose response assay to identify antagonists of the human trace amine associated receptor 1 (TAAR1).; type: functional
T2 sequence (Q96RJ0 whole entry): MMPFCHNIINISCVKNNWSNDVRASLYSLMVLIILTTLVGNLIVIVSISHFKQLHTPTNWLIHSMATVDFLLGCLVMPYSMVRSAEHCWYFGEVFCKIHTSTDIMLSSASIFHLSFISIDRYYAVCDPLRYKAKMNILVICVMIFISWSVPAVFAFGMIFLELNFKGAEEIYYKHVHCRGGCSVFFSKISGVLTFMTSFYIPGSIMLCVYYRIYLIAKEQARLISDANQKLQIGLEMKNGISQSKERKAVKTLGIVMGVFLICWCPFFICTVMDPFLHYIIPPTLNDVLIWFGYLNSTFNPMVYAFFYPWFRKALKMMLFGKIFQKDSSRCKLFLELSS

[14] = Counterscreen for antagonists of the human trace amine associated receptor 1 (hTAAR1): Fluorescence-based cell-based high throughput dose response assay to identify nonselective Ga16 antagonists.; type: functional
[15] = biological target: T2, Trace amine-associated receptor 1; experiment: Counterscreen for antagonists of the human trace amine associated receptor 1 (hTAAR1): Fluorescence-based cell-based high throughput dose response assay to identify TAAR1 Agonists.; type: functional
[16] = HEK293 cell cytotoxicity, dose response, cytotoxicity control, ATP luminescence, dry powder, Set6 (AID 743142); type: functional, cell-based
[17] = A549 cell cytotoxicity, dose response, cytotoxicity control, CellTiter-Glo luminescence, dry powder, set 3 (AID 743146); type: functional, cell-based

Chain of Potassium channel subfamily K member 9 (Q9NPC2 whole entry, the tested form may be a part): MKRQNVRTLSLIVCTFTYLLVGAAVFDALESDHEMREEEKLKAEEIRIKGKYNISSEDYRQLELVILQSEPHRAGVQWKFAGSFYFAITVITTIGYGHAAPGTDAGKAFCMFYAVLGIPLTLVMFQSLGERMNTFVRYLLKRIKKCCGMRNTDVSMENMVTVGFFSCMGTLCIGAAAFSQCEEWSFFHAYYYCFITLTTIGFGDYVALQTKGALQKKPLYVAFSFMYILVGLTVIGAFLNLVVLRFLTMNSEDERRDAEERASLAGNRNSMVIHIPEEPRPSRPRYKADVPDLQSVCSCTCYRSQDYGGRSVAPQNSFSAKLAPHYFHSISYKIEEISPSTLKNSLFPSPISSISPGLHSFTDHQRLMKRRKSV
Chain of Potassium channel subfamily K member 3 (O54912 whole entry, the tested form may be a part): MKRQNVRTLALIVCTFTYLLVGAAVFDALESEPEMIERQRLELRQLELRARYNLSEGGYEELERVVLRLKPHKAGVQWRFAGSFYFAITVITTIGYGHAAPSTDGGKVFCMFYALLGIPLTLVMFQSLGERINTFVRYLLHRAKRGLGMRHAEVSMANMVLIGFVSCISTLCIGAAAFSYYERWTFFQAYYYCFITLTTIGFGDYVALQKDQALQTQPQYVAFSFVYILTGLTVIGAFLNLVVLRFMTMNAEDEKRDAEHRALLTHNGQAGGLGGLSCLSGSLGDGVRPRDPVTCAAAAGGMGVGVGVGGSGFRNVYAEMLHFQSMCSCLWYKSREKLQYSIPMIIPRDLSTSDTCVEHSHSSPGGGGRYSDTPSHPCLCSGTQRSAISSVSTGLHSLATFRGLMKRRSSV
Chain of Paired box protein Pax-8 (Q06710 whole entry): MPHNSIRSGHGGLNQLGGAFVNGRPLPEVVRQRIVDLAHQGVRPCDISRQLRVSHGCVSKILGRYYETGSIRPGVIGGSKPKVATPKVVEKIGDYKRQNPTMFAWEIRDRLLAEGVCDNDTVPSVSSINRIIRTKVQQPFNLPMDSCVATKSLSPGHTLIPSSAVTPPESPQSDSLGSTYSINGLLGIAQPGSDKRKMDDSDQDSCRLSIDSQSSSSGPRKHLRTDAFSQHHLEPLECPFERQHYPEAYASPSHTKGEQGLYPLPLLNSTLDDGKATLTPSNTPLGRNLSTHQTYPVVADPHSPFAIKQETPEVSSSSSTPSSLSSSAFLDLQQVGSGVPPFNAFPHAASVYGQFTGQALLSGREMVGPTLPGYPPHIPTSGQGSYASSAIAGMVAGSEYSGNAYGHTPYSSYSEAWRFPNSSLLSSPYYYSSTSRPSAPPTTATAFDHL
Chain of Induced myeloid leukemia cell differentiation protein Mcl-1 (Q07820 whole entry): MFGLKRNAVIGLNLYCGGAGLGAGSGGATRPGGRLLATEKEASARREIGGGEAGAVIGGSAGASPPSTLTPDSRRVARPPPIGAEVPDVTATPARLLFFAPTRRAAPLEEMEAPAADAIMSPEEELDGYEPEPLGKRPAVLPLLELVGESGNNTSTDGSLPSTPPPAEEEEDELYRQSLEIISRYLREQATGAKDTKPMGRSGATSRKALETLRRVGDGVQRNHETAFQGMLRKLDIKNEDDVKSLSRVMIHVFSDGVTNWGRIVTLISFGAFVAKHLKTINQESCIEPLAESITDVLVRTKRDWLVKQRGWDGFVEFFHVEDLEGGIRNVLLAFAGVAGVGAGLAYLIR

For COc1ccc(C(=O)NC(C)Cc2ccccn2)cc1OC1CCN(C(C)C)CC1 (configuration not stated), the IC50 [1] was 4.6 µM (active).
In the case of CCOc1ccccc1C(=O)Nc1cccc(NC(=O)c2ccccc2C(F)(F)F)c1, the IC50 [2] is reported as 1.04 µM (active) and the IC50 [3] is reported as 0.01 µM (active).
In the case of Cc1cccc(C(=O)NC(=S)NNC(=O)c2ccc(Cl)cc2)c1, the EC50 [4] is reported as 0.362 µM (active), the IC50 [5] is reported as 25.8 µM (not active) and the EC50 [6] is reported as 1.09 µM (active). The IC50 [7] was 21.9 µM (inactive).
In the case of COc1ccc(CN(C)C[C@H]2OCCCC[C@H](C)Oc3ccc(NC(=O)Nc4ccc(C(F)(F)F)cc4)cc3C(=O)N([C@H](C)CO)C[C@H]2C)cc1, the AC50 [8] is reported as 9.16 µM (active), the AC50 [9] is reported as 26.4 µM (active) and the AC50 [10] is reported as 54.7 µM (active). The AC50 [11] was 59 µM (active).
In the case of NC(=O)COc1cccc(/C=N/NC(=O)c2ccc(-n3cccc3)cc2)c1, the EC50 [12] is reported as > 29.9 µM (inactive), the IC50 [13] is reported as > 1.11 µM (active) and the IC50 [14] is reported as > 29.9 µM (inactive). For the same compound, the EC50 [15] was > 29.9 µM (inactive).
For O=C(CCNC(=O)c1ccc(OC(F)(F)F)cc1)N[C@@H]1CCCc2ccccc21, the AC50 [16] was 6.21 µM (active) and the AC50 [17] was 26 µM (active).
